Source: patent US20110105523A1, “BIFEPRUNOX DERIVATIVES” (priority 2008, published 2011)

How the values were obtained:
[1] = molecular target: T1, human dopamine D2L receptor (Homo sapiens, UniProt P14416); assay: Receptor binding, displacement of [3H]-spiperone on CHO cell membranes; details: [3H]-spiperone displacement, recombinant human D2L in CHO membranes; s.e.m. in brackets; read-out: pKi value mean ± s.e.m. (converted)
T1 construct: host or cells: CHO-K1
Method: The potency of 3′-hydroxy-bifeprunox, 4′-hydroxy-bifeprunox, 3′-sulfate-bifeprunox, 4′-sulfate-bifeprunox and, for comparison, bifeprunox as a ligand on the human dopamine D2L receptor was investigated using a receptor binding assay and determination of functional activity was investigated using a cAMP assay. All compounds were dissolved in DMSO.
The binding of the compounds of the invention to the human D2L receptor was performed using displacement of radioactive-labeled [^3H]-spiperone binding on membranes prepared from Chinese hamster ovary (CHO) cells expressing the recombinant human D2L receptor.
Human dopamine D2L receptors were cloned in CHO-K1 cells and obtained from Dr. D. Grandy, Vollum Institute, Portland, Oreg., USA.
The binding assay has been carried out using [^3H]-spiperone as ligand (see Eur. J. Pharmacol. 46:377-381, 1977). The labeled compound was incubated with or without the test compound, with a preparation from cloned CHO cells carrying the human dopamine D2L receptor. Separation of bound and free ligand was performed by filtration over glassfiber-filters. After two washings, the bound-fraction remained on the filter. Radioactivity trapped on the filter was measured by scintillation counting. Results are expressed as pKi (negative logarithm of the inhibition constant Ki which is calculated form the IC50).

[2] = molecular target: T1, human dopamine D2L receptor; assay: Adenylate cyclase activity (cAMP assay), inhibition of forskolin-stimulated cAMP accumulation in CHO cells; assay type: cell-based; details: for Conversion of cAMP, % of control (mean (±s.e.m.)): control = forskolin-stimulated cAMP accumulation; for EC50: inhibition of forskolin-induced cAMP accumulation, D2L agonism, read-out: pEC50 mean (±s.e.m.) (converted)
Method: All compounds were dissolved in DMSO.
For incubation with test compounds (concentrations 10^−6-10^−10M), confluent cultures grown in 24 wells plates were used. Each condition or substance was routinely tested in quadruplicate. Cells were loaded with 1 μCi [^3H]-adenine in 0.5 ml medium/well. After 2 hours, cultures were washed with 0.5 ml PBS containing […] IBMX and forskolin with or without test compound. After aspiration the reaction was stopped with 1 ml trichloroacetic acid 5% (w/v). […] The extract was passed over Dowex (50W-4 200-400 mesh) and aluminiumoxide columns, eluted with water and 0.1M imidazole (pH=7.5). Eluates were mixed with 7 ml of Insta-gel and radioactivity was counted with a scintillation counter. The conversion of the cAMP fraction as compared to combined radioactivity in both cAMP and ATP fractions, and basal activity was subtracted to correct for spontaneous activity.
Dopamine D2L: reference compound: quinpirole; incubation time: 20 min.
Subsequently, the mean of four observations was taken as an estimate for drug-induced, receptor-mediated effects at specified messenger accumulation, expressed as percentage of control values (forskolin-stimulated cAMP accumulation).
By using the non-linear curve-fitting program XL-FIT mean values were plotted against drug concentration (in molar) and sigmoid curve (four parameter logistic curve) was constructed. The maximal forskolin-induced stimulated conversion was taken as maximum value and the maximal inhibition as minimum and these values were fixed during the fitting process.

T1 sequence (P14416 whole entry): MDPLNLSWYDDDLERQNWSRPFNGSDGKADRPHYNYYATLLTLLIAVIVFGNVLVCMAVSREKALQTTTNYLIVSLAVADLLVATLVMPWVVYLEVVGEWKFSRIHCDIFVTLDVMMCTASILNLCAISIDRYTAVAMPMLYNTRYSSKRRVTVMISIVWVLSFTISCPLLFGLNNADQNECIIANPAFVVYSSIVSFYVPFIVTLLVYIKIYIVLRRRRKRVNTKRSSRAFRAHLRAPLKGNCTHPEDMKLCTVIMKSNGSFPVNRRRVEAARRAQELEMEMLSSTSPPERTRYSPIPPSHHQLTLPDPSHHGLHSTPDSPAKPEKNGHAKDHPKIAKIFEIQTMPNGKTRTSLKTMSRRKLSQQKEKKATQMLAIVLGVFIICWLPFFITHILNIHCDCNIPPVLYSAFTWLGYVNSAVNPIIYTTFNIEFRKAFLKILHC

Ki [1]	PS: mean % stimulation (agonism) at 1 μM [2]	Conversion of cAMP, % of control (mean (±s.e.m.)) ([2]; 10^−6M test compound)	Conversion of cAMP, % of control (mean (±s.e.m.)) ([2]; 10^−7M test compound)	Conversion of cAMP, % of control (mean (±s.e.m.)) ([2]; 10^−8M test compound)	Conversion of cAMP, % of control (mean (±s.e.m.)) ([2]; 10^−9M test compound)	Conversion of cAMP, % of control (mean (±s.e.m.)) ([2]; 10^−10M test compound)	EC50 [2]	SMILES
12.6 nM	49%	51 (10) % of control	56 (8) % of control	63 (7) % of control	70 (6) % of control	84 (4) % of control	0.794 nM	O=c1[nH]c2cccc(N3CCN(Cc4cccc(-c5cccc(O)c5)c4)CC3)c2o1 [3′-OH, 7-[4-(3′-hydroxy[1,1′-biphenyl]-3-ylmethyl)-1-piperazinyl]-2(3H)-benzoxazolone]
12.6 nM	51%	49 (6) % of control	66 (12) % of control	79 (6) % of control	93 (9) % of control	94 (5) % of control	12.6 nM	O=c1[nH]c2cccc(N3CCN(Cc4cccc(-c5cccc(OS(=O)(=O)O)c5)c4)CC3)c2o1 [3′-sulfate, 7-[4-(3′-sulfooxy[1,1′-biphenyl]-3-ylmethyl)-1-piperazinyl]-2(3H)-benzoxazolone]
12.6 nM	55%	45 (4) % of control	50 (2) % of control	58 (4) % of control	59 (3) % of control	90 (9) % of control	0.2 nM	O=c1[nH]c2cccc(N3CCN(Cc4cccc(-c5ccc(O)cc5)c4)CC3)c2o1 [4′-OH, 7-[4-(4′-hydroxy[1,1′-biphenyl]-3-ylmethyl)-1-piperazinyl]-2(3H)-benzoxazolone]
6.31 nM	49%	51 (16) % of control	63 (14) % of control	65 (13) % of control	72 (13) % of control	85 (9) % of control	0.631 nM	O=c1[nH]c2cccc(N3CCN(Cc4cccc(-c5ccc(OS(=O)(=O)O)cc5)c4)CC3)c2o1 [4′-sulfate, 7-[4-(4′-sulfooxy[1,1′-biphenyl]-3-ylmethyl)-1-piperazinyl]-2(3H)-benzoxazolone]
39.8 nM	31%	69 (10) % of control	69 (11) % of control	84 (12) % of control	94 (13) % of control	95 (15) % of control	6.31 nM	O=c1[nH]c2cccc(N3CCN(Cc4cccc(-c5ccccc5)c4)CC3)c2o1 [Bifeprunox, 7-[4-([1,1′-biphenyl]-3-ylmethyl1)-1-piperazinyl]-2(3H)-benzoxazolone monomethanesulphonate]
